# Experimental data: publication PMC9005681, “Use of AD Informer Set compounds to explore validity of novel targets in Alzheimer's disease pathology” (Alzheimer's & Dementia : Translational Research & Clinical …, 2022)
# How the values were obtained:
# cellular system = system: cellular system; design: method as in column References for potency and dosing (the 5th table c13); settings: published data; References for potency and dosing; cited from earlier work
# [1] = biological target: T1, cloned human or rodent CNS receptors, channels, and transporters (PDSP panel) (Homo sapiens, UniProt P25021); assay: PDSP GPCR panel primary binding assays at 10 μM; settings: primary assay
# T1 construct: expressed in transfected cells
# Experimental: (§1) GPCR panel: Screening against the receptors within the PDSP panel offers an assessment of off-target pharmacological activity at cloned human or rodent CNS receptors, channels, and transporters that could confound CNS-related phenotypes. A total of 46–47 primary binding assays were run in quadruplicate on these compounds at 10 μM, with follow-up secondary binding assays in 11-point dose-response in triplicate for select compounds versus select receptors. Secondary binding assays were executed for all receptors where test compound displaced an average of >50% of radio-labeled standard ligand. As an exception, no secondary assays were carried out for H3, PBR, or GABAA. […]
# [2] = biological target: T2, cloned human or rodent CNS receptors, channels, and transporters (PDSP panel) (Homo sapiens, UniProt P11229); assay: PDSP GPCR panel primary binding assays at 10 μM; settings: primary assay
# T2 construct: expressed in transfected cells
# T2 sequence (P11229 1-460): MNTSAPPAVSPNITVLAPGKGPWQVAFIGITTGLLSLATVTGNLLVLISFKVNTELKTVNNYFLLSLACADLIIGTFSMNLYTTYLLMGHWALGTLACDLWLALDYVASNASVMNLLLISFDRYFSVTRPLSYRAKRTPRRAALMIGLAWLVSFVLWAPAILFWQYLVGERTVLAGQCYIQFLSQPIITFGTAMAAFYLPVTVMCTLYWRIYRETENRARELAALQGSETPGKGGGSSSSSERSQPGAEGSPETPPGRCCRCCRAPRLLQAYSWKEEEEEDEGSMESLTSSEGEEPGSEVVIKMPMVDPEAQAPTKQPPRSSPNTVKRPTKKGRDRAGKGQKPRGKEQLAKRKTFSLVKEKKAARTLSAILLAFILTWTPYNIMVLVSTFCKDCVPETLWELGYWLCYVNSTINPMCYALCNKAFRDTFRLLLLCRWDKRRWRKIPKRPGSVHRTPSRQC
# Experimental: as §1
# [3] = biological target: T3, cloned human or rodent CNS receptors, channels, and transporters (PDSP panel) (Homo sapiens, UniProt P34969); assay: PDSP GPCR panel primary binding assays at 10 μM; settings: primary assay
# T3 construct: expressed in transfected cells
# Experimental: as §1
# [4] = biological target: T4, cloned human or rodent CNS receptors, channels, and transporters (PDSP panel) (Homo sapiens, UniProt P21917); assay: PDSP GPCR panel primary binding assays at 10 μM; settings: primary assay
# T4 construct: expressed in transfected cells
# T4 sequence (P21917 1-419): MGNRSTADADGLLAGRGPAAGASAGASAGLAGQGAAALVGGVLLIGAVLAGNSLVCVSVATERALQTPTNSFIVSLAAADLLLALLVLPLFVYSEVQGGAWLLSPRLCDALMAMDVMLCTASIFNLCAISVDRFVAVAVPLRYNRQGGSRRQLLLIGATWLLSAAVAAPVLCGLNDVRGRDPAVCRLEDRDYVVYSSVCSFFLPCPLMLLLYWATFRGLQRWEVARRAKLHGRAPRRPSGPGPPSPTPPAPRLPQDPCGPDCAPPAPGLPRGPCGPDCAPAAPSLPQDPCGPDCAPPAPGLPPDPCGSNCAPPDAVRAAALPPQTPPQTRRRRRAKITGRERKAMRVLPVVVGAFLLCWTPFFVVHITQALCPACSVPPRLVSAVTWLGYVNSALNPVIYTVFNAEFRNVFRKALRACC
# Experimental: as §1
# [5] = biological target: T5, cloned human or rodent CNS receptors, channels, and transporters (PDSP panel) (Homo sapiens, UniProt P28223); assay: PDSP GPCR panel primary binding assays at 10 μM; settings: primary assay
# T5 construct: expressed in transfected cells
# Experimental: as §1
# [6] = biological target: T6, cloned human or rodent CNS receptors, channels, and transporters (PDSP panel) (Homo sapiens, UniProt P41145); assay: PDSP GPCR panel primary binding assays at 10 μM; settings: primary assay
# T6 construct: expressed in transfected cells
# Experimental: as §1
# [7] = biological target: T7, cloned human or rodent CNS receptors, channels, and transporters (PDSP panel) (Homo sapiens, UniProt P46098); assay: PDSP GPCR panel primary binding assays at 10 μM; settings: primary assay
# T7 construct: expressed in transfected cells
# T7 sequence (P46098 24-478): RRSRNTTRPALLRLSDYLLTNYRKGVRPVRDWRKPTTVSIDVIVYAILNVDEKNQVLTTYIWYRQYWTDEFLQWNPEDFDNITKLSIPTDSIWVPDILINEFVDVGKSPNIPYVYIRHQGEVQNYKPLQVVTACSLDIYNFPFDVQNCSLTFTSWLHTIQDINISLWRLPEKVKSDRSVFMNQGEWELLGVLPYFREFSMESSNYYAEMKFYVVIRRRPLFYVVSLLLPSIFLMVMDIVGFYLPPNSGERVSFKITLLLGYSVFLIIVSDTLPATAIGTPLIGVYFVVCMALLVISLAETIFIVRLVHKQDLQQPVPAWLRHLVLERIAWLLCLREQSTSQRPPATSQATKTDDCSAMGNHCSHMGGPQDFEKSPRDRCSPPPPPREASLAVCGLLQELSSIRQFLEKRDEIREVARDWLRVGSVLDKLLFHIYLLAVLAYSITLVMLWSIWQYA
# Experimental: as §1
# T6 sequence (P41145 whole entry): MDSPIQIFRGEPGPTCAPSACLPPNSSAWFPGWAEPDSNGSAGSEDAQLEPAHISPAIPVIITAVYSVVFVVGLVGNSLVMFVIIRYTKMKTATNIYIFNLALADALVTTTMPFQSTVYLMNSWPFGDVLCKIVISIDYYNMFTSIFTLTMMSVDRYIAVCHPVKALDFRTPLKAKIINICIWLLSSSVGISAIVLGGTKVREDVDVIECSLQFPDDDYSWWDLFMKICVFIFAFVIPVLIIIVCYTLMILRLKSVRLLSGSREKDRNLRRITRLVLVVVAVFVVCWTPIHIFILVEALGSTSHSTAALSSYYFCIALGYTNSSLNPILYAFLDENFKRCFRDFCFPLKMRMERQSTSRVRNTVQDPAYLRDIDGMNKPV
# T1 sequence (P25021 whole entry): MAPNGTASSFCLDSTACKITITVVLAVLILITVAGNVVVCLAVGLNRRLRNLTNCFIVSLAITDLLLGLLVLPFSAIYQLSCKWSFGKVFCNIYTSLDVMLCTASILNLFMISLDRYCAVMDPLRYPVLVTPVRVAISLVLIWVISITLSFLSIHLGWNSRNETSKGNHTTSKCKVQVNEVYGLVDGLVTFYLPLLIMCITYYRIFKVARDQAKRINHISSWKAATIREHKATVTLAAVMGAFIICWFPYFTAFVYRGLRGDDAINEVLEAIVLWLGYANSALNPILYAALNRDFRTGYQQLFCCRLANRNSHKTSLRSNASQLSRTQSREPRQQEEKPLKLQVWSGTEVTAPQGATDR
# T3 sequence (P34969 whole entry): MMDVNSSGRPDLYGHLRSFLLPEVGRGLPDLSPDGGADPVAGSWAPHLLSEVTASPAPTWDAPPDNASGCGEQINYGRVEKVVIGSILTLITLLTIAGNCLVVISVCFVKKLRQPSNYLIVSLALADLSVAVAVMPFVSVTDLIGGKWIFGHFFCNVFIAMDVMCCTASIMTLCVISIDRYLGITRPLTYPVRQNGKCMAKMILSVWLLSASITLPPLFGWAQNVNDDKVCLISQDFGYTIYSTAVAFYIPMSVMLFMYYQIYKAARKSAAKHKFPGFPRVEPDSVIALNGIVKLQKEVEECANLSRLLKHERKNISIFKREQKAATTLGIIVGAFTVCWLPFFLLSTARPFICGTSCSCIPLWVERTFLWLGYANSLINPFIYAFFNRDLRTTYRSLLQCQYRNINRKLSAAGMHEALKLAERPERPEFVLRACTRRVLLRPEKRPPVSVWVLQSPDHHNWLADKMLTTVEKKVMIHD
# T5 sequence (P28223 whole entry): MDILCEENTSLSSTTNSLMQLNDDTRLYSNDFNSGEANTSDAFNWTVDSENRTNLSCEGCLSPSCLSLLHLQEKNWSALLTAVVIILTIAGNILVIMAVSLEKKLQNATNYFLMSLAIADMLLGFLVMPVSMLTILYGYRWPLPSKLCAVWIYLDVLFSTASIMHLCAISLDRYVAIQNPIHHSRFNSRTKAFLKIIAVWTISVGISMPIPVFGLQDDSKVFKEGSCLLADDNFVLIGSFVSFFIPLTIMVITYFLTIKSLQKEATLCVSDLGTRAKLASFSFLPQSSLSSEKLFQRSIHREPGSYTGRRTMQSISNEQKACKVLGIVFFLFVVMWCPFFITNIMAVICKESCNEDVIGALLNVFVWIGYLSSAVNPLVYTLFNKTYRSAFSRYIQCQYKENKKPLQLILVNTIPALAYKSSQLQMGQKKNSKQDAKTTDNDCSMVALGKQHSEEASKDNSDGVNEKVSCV
compound,measurement,setting,value
"Cl.NC(=O)c1cnc(N[C@@H]2CCCC[C@@H]2N)nc1Nc1cccc(-n2nccn2)c1 [UNC10302682A, P505-15 (PRT06207 HCl)]",Reported as cell active (<10 μM),cellular system,Y (Published data supports that the compound is active in a cellular system when dosed at 10 μM (Y/N))
same,Inhibition 1,"[1]; Receptor H2, 10 μM",59.21%
same,Inhibition 2,"[1]; Receptor H2, 10 μM",38.77%
same,Inhibition 3,"[1]; Receptor H2, 10 μM",21.91%
same,Inhibition 4,"[1]; Receptor H2, 10 μM",-3.64%
same,Mean %,"[1]; Receptor H2, 10 μM, mean of Inhibition 1-4",29.06%
same,Inhibition 1,"[2]; Receptor M1, 10 μM",35.84%
same,Inhibition 2,"[2]; Receptor M1, 10 μM",24.74%
same,Inhibition 3,"[2]; Receptor M1, 10 μM",0.85%
same,Inhibition 4,"[2]; Receptor M1, 10 μM",16.46%
same,Mean %,"[2]; Receptor M1, 10 μM, mean of Inhibition 1-4",19.47%
same,Inhibition 1,"[3]; Receptor 5-HT7A, 10 μM",33.86%
same,Inhibition 2,"[3]; Receptor 5-HT7A, 10 μM",20.22%
same,Inhibition 3,"[3]; Receptor 5-HT7A, 10 μM",54.31%
same,Inhibition 4,"[3]; Receptor 5-HT7A, 10 μM",52.91%
same,Mean %,"[3]; Receptor 5-HT7A, 10 μM, mean of Inhibition 1-4",40.33%
same,Inhibition 1,"[4]; Receptor D4, 10 μM",7.46%
same,Inhibition 2,"[4]; Receptor D4, 10 μM",12.14%
same,Inhibition 3,"[4]; Receptor D4, 10 μM",13.58%
same,Inhibition 4,"[4]; Receptor D4, 10 μM",14.53%
same,Mean %,"[4]; Receptor D4, 10 μM, mean of Inhibition 1-4",11.93%
same,Inhibition 1,"[5]; Receptor 5-HT2A, 10 μM",13.95%
same,Inhibition 2,"[5]; Receptor 5-HT2A, 10 μM",2.61%
same,Inhibition 3,"[5]; Receptor 5-HT2A, 10 μM",8.53%
same,Inhibition 4,"[5]; Receptor 5-HT2A, 10 μM",0.63%
same,Mean %,"[5]; Receptor 5-HT2A, 10 μM, mean of Inhibition 1-4",6.43%
same,Inhibition 1,"[6]; Receptor KOR, 10 μM",-6.83%
same,Inhibition 2,"[6]; Receptor KOR, 10 μM",-18.02%
same,Inhibition 3,"[6]; Receptor KOR, 10 μM",-46.91%
same,Inhibition 4,"[6]; Receptor KOR, 10 μM",-15.34%
same,Mean %,"[6]; Receptor KOR, 10 μM, mean of Inhibition 1-4",-21.78%
same,Inhibition 1,"[7]; Receptor 5-HT3, 10 μM",66.83%
same,Inhibition 2,"[7]; Receptor 5-HT3, 10 μM",77.09%
same,Inhibition 3,"[7]; Receptor 5-HT3, 10 μM",73.28%
same,Inhibition 4,"[7]; Receptor 5-HT3, 10 μM",75.45%
same,Mean %,"[7]; Receptor 5-HT3, 10 μM, mean of Inhibition 1-4",73.16%
"CC(=O)N1CCC(NC(=O)NC23CC4CC(CC(C4)C2)C3)CC1 [UNC10302683A, AR9281]",Reported as cell active (<10 μM),cellular system,Y (Published data supports that the compound is active in a cellular system when dosed at 10 μM (Y/N))
same,Mean %,"[1]; H2, mean inhibition",-19%
same,Inhibition 1,"[1]; H2, replicate 1",4.92%
same,Inhibition 2,"[1]; H2, replicate 2",-11.17%
same,Inhibition 3,"[1]; H2, replicate 3",-32.29%
same,Inhibition 4,"[1]; H2, replicate 4",-37.45%
same,Mean %,"[2]; M1, mean inhibition",7.62%
same,Inhibition 1,"[2]; M1, replicate 1",23.24%
same,Inhibition 2,"[2]; M1, replicate 2",6.49%
same,Inhibition 3,"[2]; M1, replicate 3",-4.8%
same,Inhibition 4,"[2]; M1, replicate 4",5.55%
same,Mean %,"[3]; 5-HT7A, mean inhibition",20.3%
same,Inhibition 1,"[3]; 5-HT7A, replicate 1",4.73%
same,Inhibition 2,"[3]; 5-HT7A, replicate 2",29.98%
same,Inhibition 3,"[3]; 5-HT7A, replicate 3",12.78%
same,Inhibition 4,"[3]; 5-HT7A, replicate 4",33.7%
same,Mean %,"[4]; D4, mean inhibition",-0.6%
same,Inhibition 1,"[4]; D4, replicate 1",1.15%
same,Inhibition 2,"[4]; D4, replicate 2",-3.44%
same,Inhibition 3,"[4]; D4, replicate 3",-3.44%
same,Inhibition 4,"[4]; D4, replicate 4",3.35%
same,Mean %,"[5]; 5-HT2A, mean inhibition",-3.07%
same,Inhibition 1,"[5]; 5-HT2A, replicate 1",-2.98%
same,Inhibition 2,"[5]; 5-HT2A, replicate 2",1.29%
same,Inhibition 3,"[5]; 5-HT2A, replicate 3",-10.71%
same,Inhibition 4,"[5]; 5-HT2A, replicate 4",0.14%
same,Mean %,"[6]; KOR, mean inhibition",-25.19%
same,Inhibition 1,"[6]; KOR, replicate 1",-27.43%
same,Inhibition 2,"[6]; KOR, replicate 2",-29%
same,Inhibition 3,"[6]; KOR, replicate 3",-23.06%
same,Inhibition 4,"[6]; KOR, replicate 4",-21.27%
same,Mean %,"[7]; 5-HT3, mean inhibition",13.87%
same,Inhibition 1,"[7]; 5-HT3, replicate 1",9.48%
same,Inhibition 2,"[7]; 5-HT3, replicate 2",13.6%
same,Inhibition 3,"[7]; 5-HT3, replicate 3",-1.71%
same,Inhibition 4,"[7]; 5-HT3, replicate 4",34.11%
MDL 28170 [UNC10302675A],Reported as cell active (<10 μM),cellular system,Y (Published data supports that the compound is active in a cellular system when dosed at 10 μM (Y/N))
same,Mean %,"[1]; H2, mean inhibition",-17.24%
same,Inhibition 1,"[1]; H2, replicate 1",-6.35%
same,Inhibition 2,"[1]; H2, replicate 2",-24.37%
same,Inhibition 3,"[1]; H2, replicate 3",-15.47%
same,Inhibition 4,"[1]; H2, replicate 4",-22.78%
same,Mean %,"[2]; M1, mean inhibition",-11.2%
same,Inhibition 1,"[2]; M1, replicate 1",-2.73%
same,Inhibition 2,"[2]; M1, replicate 2",-6.87%
same,Inhibition 3,"[2]; M1, replicate 3",-20.6%
same,Inhibition 4,"[2]; M1, replicate 4",-14.58%
same,Mean %,"[3]; 5-HT7A, mean inhibition",12.48%
same,Inhibition 1,"[3]; 5-HT7A, replicate 1",4.73%
same,Inhibition 2,"[3]; 5-HT7A, replicate 2",10.46%
same,Inhibition 3,"[3]; 5-HT7A, replicate 3",19.29%
same,Inhibition 4,"[3]; 5-HT7A, replicate 4",15.42%
same,Mean %,"[4]; D4, mean inhibition",0.31%
same,Inhibition 1,"[4]; D4, replicate 1",10.14%
same,Inhibition 2,"[4]; D4, replicate 2",-3.06%
same,Inhibition 3,"[4]; D4, replicate 3",-7.08%
same,Inhibition 4,"[4]; D4, replicate 4",1.24%
same,Mean %,"[5]; 5-HT2A, mean inhibition",-2.25%
same,Inhibition 1,"[5]; 5-HT2A, replicate 1",10.17%
same,Inhibition 2,"[5]; 5-HT2A, replicate 2",-7.92%
same,Inhibition 3,"[5]; 5-HT2A, replicate 3",-7.75%
same,Inhibition 4,"[5]; 5-HT2A, replicate 4",-3.48%
same,Mean %,"[6]; KOR, mean inhibition",8.82%
same,Inhibition 1,"[6]; KOR, replicate 1",3.47%
same,Inhibition 2,"[6]; KOR, replicate 2",2.13%
same,Inhibition 3,"[6]; KOR, replicate 3",10.86%
same,Inhibition 4,"[6]; KOR, replicate 4",18.81%
same,Mean %,"[7]; 5-HT3, mean inhibition",-2.62%
same,Inhibition 1,"[7]; 5-HT3, replicate 1",-0.93%
same,Inhibition 2,"[7]; 5-HT3, replicate 2",2.95%
same,Inhibition 3,"[7]; 5-HT3, replicate 3",-29.22%
same,Inhibition 4,"[7]; 5-HT3, replicate 4",16.71%
